Test results from publication PMC6934184, “Selective DNA-PKcs inhibition extends the therapeutic index of localized radiotherapy and chemotherapy” (The Journal of Clinical Investigation, 2019).

Target: T1, FYN (Homo sapiens, UniProt P06241)
T1 construct: purchased Thermo Fisher Scientific (Life Technologies) SelectScreen
Assay: SelectScreen Z'LYTE
Assay type: biochemical
Procedure, shortened: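 SelectScreen broad panel; activity (Z'LYTE, Adapta) plus binding formats. ATP: Km app for CSF1R Z'LYTE; 10 for CAMK1 Adapta. Readout = % per kinase.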

T1 sequence (P06241 whole entry): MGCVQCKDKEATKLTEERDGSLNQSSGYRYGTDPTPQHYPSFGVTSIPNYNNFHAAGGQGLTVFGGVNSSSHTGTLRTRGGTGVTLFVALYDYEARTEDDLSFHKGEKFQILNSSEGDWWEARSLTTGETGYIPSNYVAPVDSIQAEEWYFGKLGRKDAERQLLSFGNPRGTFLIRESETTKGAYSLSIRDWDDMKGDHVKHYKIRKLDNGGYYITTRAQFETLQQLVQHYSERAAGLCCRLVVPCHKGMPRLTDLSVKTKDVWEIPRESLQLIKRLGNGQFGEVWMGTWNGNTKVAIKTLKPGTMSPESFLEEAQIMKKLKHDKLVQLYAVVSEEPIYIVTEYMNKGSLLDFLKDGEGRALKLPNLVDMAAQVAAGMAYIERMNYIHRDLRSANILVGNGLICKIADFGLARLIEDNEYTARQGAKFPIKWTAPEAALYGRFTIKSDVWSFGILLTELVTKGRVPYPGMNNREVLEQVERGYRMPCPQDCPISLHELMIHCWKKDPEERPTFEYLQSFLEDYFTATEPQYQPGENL

Which inhibition at 1 µM does the source give for `CN(C(=O)CN1CCOCC1)c1ccc2sc3c(-c4cccc5c(=O)cc(N6CC7CCC(C6)O7)oc45)cccc3c2c1` [NU5455] here?
Its inhibition at 1 µM is 8.3%.
